Key:
[1] = system: anaesthetized male Sprague-Dawley rats; test: Hemodynamics in anaesthetized rats (IV bolus); type: in vivo, rat; conditions: IV bolus 0.13 μg/kg to 44 μg/kg
Protocol: The hemodynamic profile of h-SCP (SEQ ID NO:1) was determined in sodium pentobarbital anaesthetized male Sprague-Dawley rats (FIG. 10). A SPR-320 Mikro-Tip® integrated catheter-tipped micro-manometer (Millar Instruments, Houston, Tex., U.S.A.) was placed in the right femoral artery for blood pressure measurements, and another one directly in the left ventricle for LV pressure measurement. […] The changes in hemodynamic parameters induced by h-SCP (SEQ ID NO:1, full circle in FIG. 10) were blocked by pretreatment with anti-sauvagine-30 (SEQ ID NO:118, open circle in FIG. 10).

h-CRHR1 = biological target: T1, h-CRHR1 (Homo sapiens, UniProt P34998); conditions: h-CRHR1 transfected HEK-293 cells, approximated values from concentration response curves (Hsu et al., 2001); cited from earlier work
T1 sequence (P34998 24-415): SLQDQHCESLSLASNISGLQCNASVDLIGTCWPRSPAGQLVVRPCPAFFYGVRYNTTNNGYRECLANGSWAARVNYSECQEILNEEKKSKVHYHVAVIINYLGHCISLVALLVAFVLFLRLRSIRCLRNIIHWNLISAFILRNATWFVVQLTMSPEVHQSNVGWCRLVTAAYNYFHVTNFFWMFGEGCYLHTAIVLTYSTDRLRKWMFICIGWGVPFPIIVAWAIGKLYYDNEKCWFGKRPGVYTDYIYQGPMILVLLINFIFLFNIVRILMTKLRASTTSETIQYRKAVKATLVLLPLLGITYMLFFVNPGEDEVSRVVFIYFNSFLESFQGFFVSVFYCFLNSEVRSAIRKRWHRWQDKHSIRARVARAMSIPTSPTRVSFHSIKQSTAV

Substance: H-TKFTLSLDVPTNIMNLLFNIAKAKNLRAQAAANAHLMAQI-NH2 [SEQ ID NO: 1, TKFTLSLDVPTNIMNLLFNIAKAKNLRAQAAANAHLMAQI-NH2]
- hemodynamic profile [1]: dose-dependent increases in heart rate, LV developed pressure (+dP/dt), and a corresponding decrease in blood pressure

Substance: H-HPGSRIVLSLDVPIGLLQILLEQARARAAREQATTNARILARV-NH2 [SEQ ID NO: 117, HPGSRIVLSLDVPIGLLQILLEQARARAAREQATTNARILARV-NH2, reference compound]
- Published pA50 (h-CRHR1): >7^3

Source: patent US20110105397A1, “METHOD FOR TREATING HEART FAILURE WITH STRESSCOPIN-LIKE PEPTIDES” (priority 2009, published 2011)
